Measurements taken from ChEMBL document CHEMBL4052654, “Development of novel N-3-bromoisoxazolin-5-yl substituted 2,3-benzodiazepines as noncompetitive AMPAR antagonists” (Bioorg Med Chem, 2017).
Values belong to the molecule of their own block, whether it stands above or below them.

Assays:
[1] = biological target: T1, Glutamate receptor 2 (Homo sapiens, UniProt P42262); experiment: Antagonist activity at open state of GluA2Qflip isoform (unknown origin) expressed in HEK293 cells assessed as reduction in glutamate-induced current response in presence of 3 mM glutamate by whole cell assay relative to control; assay type: cell-based
[2] = biological target: T2, Glutamate receptor 4 (Homo sapiens, UniProt P48058); experiment: Antagonist activity at closed state of GluA4 (unknown origin) assessed as reduction in glutamate-induced current response in presence of 100 uM glutamate relative to control
[3] = biological target: T3, Glutamate receptor 1 (Homo sapiens, UniProt P42261); experiment: Antagonist activity at closed state of GluA1 (unknown origin) assessed as reduction in glutamate-induced current response in presence of 40 to 50 uM glutamate
[4] = biological target: T3, Glutamate receptor 1; experiment: Antagonist activity at closed state of GluA1 (unknown origin) assessed as reduction in glutamate-induced current response in presence of 40 to 50 uM glutamate relative to control
[5] = biological target: T4, Glutamate receptor 3 (Homo sapiens, UniProt P42263); experiment: Antagonist activity at open state of GluA3 (unknown origin) assessed as reduction in glutamate-induced current response in presence of 3 mM glutamate
[6] = biological target: T4, Glutamate receptor 3; experiment: Antagonist activity at closed state of GluA3 (unknown origin) assessed as reduction in glutamate-induced current response in presence of 100 uM glutamate
[7] = biological target: T3, Glutamate receptor 1; experiment: Antagonist activity at open state of GluA1 (unknown origin) assessed as reduction in glutamate-induced current response in presence of 2 mM glutamate relative to control
[8] = biological target: T3, Glutamate receptor 1; experiment: Antagonist activity at open state of GluA1 (unknown origin) assessed as reduction in glutamate-induced current response in presence of 2 mM glutamate
[9] = biological target: T2, Glutamate receptor 4; experiment: Antagonist activity at open state of GluA4 (unknown origin) assessed as reduction in glutamate-induced current response in presence of 3 mM glutamate
[10] = biological target: T2, Glutamate receptor 4; experiment: Antagonist activity at open state of GluA4 (unknown origin) assessed as reduction in glutamate-induced current response in presence of 3 mM glutamate relative to control
[11] = biological target: T1, Glutamate receptor 2; experiment: Antagonist activity at closed state of GluA2Qflip isoform (unknown origin) expressed in HEK293 cells assessed as reduction in glutamate-induced current response in presence of 0.1 mM glutamate by whole cell assay; assay type: cell-based
[12] = biological target: T1, Glutamate receptor 2; experiment: Antagonist activity at open state of GluA2Qflip isoform (unknown origin) expressed in HEK293 cells assessed as reduction in glutamate-induced current response at 2.5 uM in presence of 3 mM glutamate by whole cell assay relative to control; assay type: cell-based
[13] = biological target: T4, Glutamate receptor 3; experiment: Antagonist activity at closed state of GluA3 (unknown origin) assessed as reduction in glutamate-induced current response in presence of 100 uM glutamate relative to control
[14] = biological target: T1, Glutamate receptor 2; experiment: Antagonist activity at closed state of GluA2Qflip isoform (unknown origin) expressed in HEK293 cells assessed as reduction in glutamate-induced current response at 2.5 uM in presence of 0.1 mM glutamate by whole cell assay relative to control; assay type: cell-based
[15] = biological target: T2, Glutamate receptor 4; experiment: Antagonist activity at closed state of GluA4 (unknown origin) assessed as reduction in glutamate-induced current response in presence of 100 uM glutamate
[16] = biological target: T4, Glutamate receptor 3; experiment: Antagonist activity at open state of GluA3 (unknown origin) assessed as reduction in glutamate-induced current response in presence of 3 mM glutamate relative to control
[17] = biological target: T1, Glutamate receptor 2; experiment: Antagonist activity at closed state of GluA2Qflip isoform (unknown origin) expressed in HEK293 cells assessed as reduction in glutamate-induced current response at 10 uM in presence of 0.1 mM glutamate by whole cell assay relative to control; assay type: cell-based
[18] = biological target: T1, Glutamate receptor 2; experiment: Antagonist activity at open state of GluA2Qflip isoform (unknown origin) expressed in HEK293 cells assessed as reduction in glutamate-induced current response at 10 uM in presence of 3 mM glutamate by whole cell assay relative to control; assay type: cell-based
[19] = biological target: T1, Glutamate receptor 2; experiment: Antagonist activity at open state of GFP-tagged GluA2Qflip isoform (unknown origin) expressed in HEK293S cells assessed as reduction in glutamate-induced current response in presence of 3 mM glutamate by whole cell assay relative to control; assay type: cell-based
[20] = biological target: T1, Glutamate receptor 2; experiment: Antagonist activity at closed state of GFP-tagged GluA2Qflip isoform (unknown origin) expressed in HEK293S cells assessed as reduction in glutamate-induced current response in presence of 0.1 mM glutamate by whole cell assay; assay type: cell-based
[21] = biological target: T1, Glutamate receptor 2; experiment: Antagonist activity at open state of GluA2Qflip isoform (unknown origin) expressed in HEK293 cells assessed as reduction in glutamate-induced current response at 1 uM in presence of 3 mM glutamate by whole cell assay relative to control; assay type: cell-based
[22] = biological target: T1, Glutamate receptor 2; experiment: Antagonist activity at closed state of GluA2Qflip isoform (unknown origin) expressed in HEK293 cells assessed as reduction in glutamate-induced current response at 1 uM in presence of 0.1 mM glutamate by whole cell assay relative to control; assay type: cell-based

T3 sequence (P42261 whole entry): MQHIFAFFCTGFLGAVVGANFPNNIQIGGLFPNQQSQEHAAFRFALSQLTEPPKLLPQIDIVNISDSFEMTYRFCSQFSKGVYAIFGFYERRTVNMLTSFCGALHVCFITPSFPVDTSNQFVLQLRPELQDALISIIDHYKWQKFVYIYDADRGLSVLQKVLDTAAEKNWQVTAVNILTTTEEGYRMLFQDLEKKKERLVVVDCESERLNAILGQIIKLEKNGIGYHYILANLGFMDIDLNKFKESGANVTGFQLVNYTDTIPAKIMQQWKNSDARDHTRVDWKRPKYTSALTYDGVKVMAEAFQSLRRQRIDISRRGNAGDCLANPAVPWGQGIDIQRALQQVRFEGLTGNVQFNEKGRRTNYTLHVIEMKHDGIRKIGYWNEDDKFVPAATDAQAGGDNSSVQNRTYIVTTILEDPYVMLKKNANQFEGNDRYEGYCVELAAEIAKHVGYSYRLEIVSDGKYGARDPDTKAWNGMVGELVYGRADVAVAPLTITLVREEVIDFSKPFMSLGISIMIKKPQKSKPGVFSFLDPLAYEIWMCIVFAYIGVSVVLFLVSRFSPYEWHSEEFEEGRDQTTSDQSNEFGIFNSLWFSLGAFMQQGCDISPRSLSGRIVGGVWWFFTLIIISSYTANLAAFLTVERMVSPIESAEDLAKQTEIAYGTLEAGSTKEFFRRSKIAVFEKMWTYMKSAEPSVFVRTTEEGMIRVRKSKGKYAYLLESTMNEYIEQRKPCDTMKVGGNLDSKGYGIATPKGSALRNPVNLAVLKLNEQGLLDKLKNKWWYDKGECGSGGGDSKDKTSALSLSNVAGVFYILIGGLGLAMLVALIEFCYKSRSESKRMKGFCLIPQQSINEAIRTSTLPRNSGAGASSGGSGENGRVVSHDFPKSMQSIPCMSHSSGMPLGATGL
T1 sequence (P42262 whole entry, canonical isoform): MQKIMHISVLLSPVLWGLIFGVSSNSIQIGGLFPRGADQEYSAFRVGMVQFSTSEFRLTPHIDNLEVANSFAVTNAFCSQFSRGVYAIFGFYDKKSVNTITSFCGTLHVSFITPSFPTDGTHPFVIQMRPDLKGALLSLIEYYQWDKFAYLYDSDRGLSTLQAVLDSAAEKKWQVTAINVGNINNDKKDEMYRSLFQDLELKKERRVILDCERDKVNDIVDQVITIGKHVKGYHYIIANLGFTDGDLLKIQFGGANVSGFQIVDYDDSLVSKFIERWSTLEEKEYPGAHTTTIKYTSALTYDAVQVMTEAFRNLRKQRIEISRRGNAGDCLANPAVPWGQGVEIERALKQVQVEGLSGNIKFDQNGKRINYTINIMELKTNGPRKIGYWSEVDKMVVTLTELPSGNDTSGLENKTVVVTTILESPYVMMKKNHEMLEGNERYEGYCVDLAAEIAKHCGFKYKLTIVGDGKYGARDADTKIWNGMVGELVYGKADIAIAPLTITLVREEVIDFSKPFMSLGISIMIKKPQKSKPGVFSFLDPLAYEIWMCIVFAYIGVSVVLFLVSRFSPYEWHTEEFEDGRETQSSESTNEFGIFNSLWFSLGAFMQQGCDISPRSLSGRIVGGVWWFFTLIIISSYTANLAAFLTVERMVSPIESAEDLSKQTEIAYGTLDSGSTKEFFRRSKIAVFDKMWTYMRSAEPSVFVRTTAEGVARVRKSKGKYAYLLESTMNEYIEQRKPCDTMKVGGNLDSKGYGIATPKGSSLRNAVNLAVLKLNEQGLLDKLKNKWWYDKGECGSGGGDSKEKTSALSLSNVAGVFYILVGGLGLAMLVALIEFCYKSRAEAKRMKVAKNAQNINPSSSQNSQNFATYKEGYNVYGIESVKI
T2 sequence (P48058 whole entry): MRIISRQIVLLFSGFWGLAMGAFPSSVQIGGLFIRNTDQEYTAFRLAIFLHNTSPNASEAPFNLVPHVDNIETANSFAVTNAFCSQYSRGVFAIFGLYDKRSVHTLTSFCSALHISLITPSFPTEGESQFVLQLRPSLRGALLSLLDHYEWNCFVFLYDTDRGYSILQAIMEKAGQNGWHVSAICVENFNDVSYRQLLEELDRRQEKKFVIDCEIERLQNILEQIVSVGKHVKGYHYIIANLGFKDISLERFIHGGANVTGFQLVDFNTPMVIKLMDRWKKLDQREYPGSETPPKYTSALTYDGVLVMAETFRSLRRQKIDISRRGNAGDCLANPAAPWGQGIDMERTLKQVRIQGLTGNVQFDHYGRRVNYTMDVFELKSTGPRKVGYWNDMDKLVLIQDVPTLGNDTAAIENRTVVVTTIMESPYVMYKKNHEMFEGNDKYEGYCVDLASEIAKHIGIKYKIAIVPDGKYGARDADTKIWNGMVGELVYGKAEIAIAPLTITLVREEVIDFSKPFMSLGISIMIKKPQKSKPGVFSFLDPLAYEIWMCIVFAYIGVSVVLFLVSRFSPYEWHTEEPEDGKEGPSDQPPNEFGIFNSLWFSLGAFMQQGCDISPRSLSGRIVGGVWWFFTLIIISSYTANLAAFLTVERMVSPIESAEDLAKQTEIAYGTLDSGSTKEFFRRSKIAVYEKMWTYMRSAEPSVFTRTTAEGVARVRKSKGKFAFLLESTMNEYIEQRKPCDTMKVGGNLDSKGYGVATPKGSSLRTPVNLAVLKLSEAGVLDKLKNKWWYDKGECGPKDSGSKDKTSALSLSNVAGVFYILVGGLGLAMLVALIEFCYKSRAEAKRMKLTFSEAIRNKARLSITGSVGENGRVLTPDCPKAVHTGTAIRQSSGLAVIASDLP
T4 sequence (P42263 whole entry): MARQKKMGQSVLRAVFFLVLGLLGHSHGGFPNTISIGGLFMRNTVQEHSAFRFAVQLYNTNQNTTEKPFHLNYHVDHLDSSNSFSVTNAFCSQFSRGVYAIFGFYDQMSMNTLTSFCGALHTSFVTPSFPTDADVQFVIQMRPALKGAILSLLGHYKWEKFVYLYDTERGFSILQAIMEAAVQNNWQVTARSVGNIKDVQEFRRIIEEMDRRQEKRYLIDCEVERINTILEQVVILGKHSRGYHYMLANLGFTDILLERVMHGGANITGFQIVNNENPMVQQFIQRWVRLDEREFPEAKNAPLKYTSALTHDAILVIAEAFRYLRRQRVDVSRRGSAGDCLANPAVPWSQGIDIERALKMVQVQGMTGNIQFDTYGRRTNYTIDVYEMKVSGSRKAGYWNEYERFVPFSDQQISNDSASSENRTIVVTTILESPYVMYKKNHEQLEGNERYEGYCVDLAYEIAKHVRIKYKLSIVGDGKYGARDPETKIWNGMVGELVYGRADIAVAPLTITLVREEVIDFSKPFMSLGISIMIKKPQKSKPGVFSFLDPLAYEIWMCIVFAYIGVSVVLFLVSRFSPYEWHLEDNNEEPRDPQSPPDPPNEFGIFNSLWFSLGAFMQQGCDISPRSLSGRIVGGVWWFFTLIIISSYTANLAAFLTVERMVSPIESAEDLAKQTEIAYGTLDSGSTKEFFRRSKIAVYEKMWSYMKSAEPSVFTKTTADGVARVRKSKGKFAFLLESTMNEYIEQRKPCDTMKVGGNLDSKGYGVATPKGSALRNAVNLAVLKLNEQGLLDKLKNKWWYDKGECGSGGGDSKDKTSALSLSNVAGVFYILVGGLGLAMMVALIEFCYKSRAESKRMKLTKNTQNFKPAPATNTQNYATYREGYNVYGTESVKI

Structure (SMILES): Cc1cc(C2=NN(CC3CC(Br)=NO3)C(=O)Cc3cc4c(cc32)OCCO4)cc(C)c1N (stereo not drawn)
Ki [1]: Not Active
fold change (FC) [2]: 1.34
Ki [3]: 13.2 µM
fold change (FC) [4]: 1.19
Ki [5]: 13.9 µM
Ki [6]: 27.8 µM
fold change (FC) [7]: 1.39
Ki [8]: 6.4 µM
Ki [9]: 11.4 µM
fold change (FC) [10]: 1.22
Ki [11]: 5 µM
fold change (FC) [12]: 0.95
fold change (FC) [13]: 1.09
fold change (FC) [14]: 1.46
Ki [15]: 7.4 µM
fold change (FC) [16]: 1.18

Ki ([1]; read-out: Ki): 50 µM
fold change (FC) [17]: 1.23
fold change (FC) [18]: 1.2
Ki [11]: 50 µM
Structure (SMILES): Cc1cc(C2=NN(CC3CC(Br)=NO3)C(=O)Cc3cc4c(cc32)OCCO4)ccc1N (stereo not drawn)

Structure (SMILES): Nc1ccc(C2=NNC(=O)Cc3cc4c(cc32)OCCO4)cc1
Ki [19]: 33 µM
Ki [20]: 21 µM

fold change (FC) [21]: 1.16
fold change (FC) [22]: 1.01
Structure (SMILES): Cc1cc(C2=NN(C3CC(Br)=NO3)C(=O)Cc3cc4c(cc32)OCCO4)ccc1N (stereo not drawn)

fold change (FC) [21]: 1.09
fold change (FC) [22]: 1.44
Structure (SMILES): Nc1ccc(C2=NN(CC3CC(Br)=NO3)C(=O)Cc3cc4c(cc32)OCCO4)cc1 (stereo not drawn)

fold change (FC) [21]: 1.24
fold change (FC) [22]: 1.21
Structure (SMILES): Cc1cc(C2=NN(C3CC(Br)=NO3)C(=O)Cc3cc4c(cc32)OCCO4)cc(C)c1N (stereo not drawn)

Ki ([1]; read-out: Ki): 14 µM
Ki [11]: 3 µM
fold change (FC) [12]: 1.18
fold change (FC) [14]: 1.75
Structure (SMILES): Nc1ccc(C2=NN(C3CC(Br)=NO3)C(=O)Cc3cc4c(cc32)OCCO4)cc1 (stereo not drawn)

Structure (SMILES): CC1=NN=C(c2ccc(N)cc2)c2cc3c(cc2C1)OCO3 [GYKI-52466]
Ki [19]: 5 µM
Ki [20]: 4 µM

Structure (SMILES): Cc1cc(C2=NNC(=O)Cc3cc4c(cc32)OCCO4)cc(C)c1N
Ki [19]: 164 µM
Ki [20]: 94 µM

Structure (SMILES): Cc1cc(C2=NNC(=O)Cc3cc4c(cc32)OCCO4)ccc1N
Ki [19]: 9 µM
Ki [20]: 4 µM
